# Assay results taken from PMC8286840, “Identifying SARS-CoV-2 antiviral compounds by screening for small molecule inhibitors of Nsp3 papain-like protease” (Biochemical Journal, 2021).
# Where a name gives a salt, the structure may show the parent alone. Read-outs that look alike come from different tables or passages of the source. Where a SMILES comes first, the peptide text is derived from it. The star is where a group is joined. PhAc = O=C(Cc1ccccc1)*
# Key:
# [1] = molecular target: T1, SARS-CoV-2 PLpro (nsp3 1564–1878) (Severe acute respiratory syndrome coronavirus 2, UniProt P0DTD1); test: biochemical; parameters: FRET-quenched peptide (Pro3) cleavage by PLpro, 10 min pre-incubation, slope over 20 min, normalised to no-compound control; details: low concentration screen, read-out: % of control remaining
# [2] = molecular target: T1, SARS-CoV-2 PLpro (nsp3 1564–1878); test: biochemical; parameters: FRET-quenched peptide (Pro3) cleavage by PLpro, 10 min pre-incubation, slope over 20 min, normalised to no-compound control; details: high concentration screen, read-out: % of control remaining
structure (smiles),measurement,setting,value
CNCCC(Oc1ccccc1OC)c1ccccc1 (stereo not drawn) [Nisoxetine.HCl],remaining activity at 1.25 µM,[1]; Well no.=1789,103%
same,remaining activity at 3.75 µM,[2]; Well no.=1789,99.5%
CC(=O)Oc1ccccc1C(=O)Nc1ncc([N+](=O)[O-])s1 [Nitazoxanide],remaining activity at 1.25 µM,[1]; Well no.=5482,101%
same,remaining activity at 3.75 µM,[2]; Well no.=5482,101%
O=C1CCCC(=O)C1C(=O)c1ccc(C(F)(F)F)cc1[N+](=O)[O-] [Nitisinone],remaining activity at 1.25 µM,[1]; Well no.=5887,103%
same,remaining activity at 3.75 µM,[2]; Well no.=5887,103%
CCOC(=O)C1=C(C)NC(C)=C(C(=O)OC)C1c1cccc([N+](=O)[O-])c1 (stereo not drawn) [Nitrendipine],remaining activity at 1.25 µM,[1]; Well no.=796,92.2%
same,remaining activity at 1.25 µM,[1]; Well no.=1719,99.4%
same,remaining activity at 3.75 µM,[2]; Well no.=796,94.4%
same,remaining activity at 3.75 µM,[2]; Well no.=1719,103%
CNC(=C[N+](=O)[O-])NCCSCc1csc(CN(C)C)n1 [Nizatidine],remaining activity at 1.25 µM,[1]; Well no.=4628,101%
same,remaining activity at 1.25 µM,[1]; Well no.=7378,99.2%
same,remaining activity at 3.75 µM,[2]; Well no.=4628,99.2%
same,remaining activity at 3.75 µM,[2]; Well no.=7378,98.9%
COC(=O)Nc1nc2cc(C(=O)c3cccs3)ccc2[nH]1 [Nocodazole],remaining activity at 1.25 µM,[1]; Well no.=824,99.3%
same,remaining activity at 1.25 µM,[1]; Well no.=6258,96.5%
same,remaining activity at 3.75 µM,[2]; Well no.=824,101%
same,remaining activity at 3.75 µM,[2]; Well no.=6258,94.1%
Cc1ccc2nc(N)[nH]c(=O)c2c1Sc1ccncc1 [Nolatrexed dihydrochloride],remaining activity at 1.25 µM,[1]; Well no.=6980,103%
same,remaining activity at 3.75 µM,[2]; Well no.=6980,100%
CN1Cc2c(N)cccc2C(c2ccccc2)C1 (stereo not drawn) [Nomifensine (maleate)],remaining activity at 1.25 µM,[1]; Well no.=8395,97.9%
same,remaining activity at 3.75 µM,[2]; Well no.=8395,95.9%
CN1Cc2c(N)cccc2C(c2ccccc2)C1 (stereo not drawn) [Nomifensine maleate],remaining activity at 1.25 µM,[1]; Well no.=1139,94.1%
same,remaining activity at 3.75 µM,[2]; Well no.=1139,96.7%
C[C@@H]1C[C@H]2CC[C@H](O2)[C@H](C)C(=O)O[C@@H](C)C[C@@H]2CC[C@@H](O2)[C@@H](C)C(=O)O[C@H](C)C[C@H]2CC[C@H](O2)[C@H](C)C(=O)O[C@@H](C)C[C@@H]2CC[C@@H](O2)[C@@H](C)C(=O)O1 [Nonactin],remaining activity at 1.25 µM,[1]; Well no.=3330,95.5%
same,remaining activity at 3.75 µM,[2]; Well no.=3330,94.1%
CCCCCCCCCCCCCCCCCCC(=O)O [Nonadecanoic acid],remaining activity at 1.25 µM,[1]; Well no.=4362,100%
same,remaining activity at 3.75 µM,[2]; Well no.=4362,95.6%
CCOC(=O)CNC(=O)[C@@H]1CCCN1C(=O)Cc1ccccc1 [Noopept] (PhAc-Pro-Gly-OEt),remaining activity at 1.25 µM,[1]; Well no.=5674,104%
same,remaining activity at 3.75 µM,[2]; Well no.=5674,104%
O=C1OC(=O)[C@H]2[C@@H]1[C@@H]1CC[C@H]2O1 [Norcantharidin],remaining activity at 1.25 µM,[1]; Well no.=909,100%
same,remaining activity at 3.75 µM,[2]; Well no.=909,97.7%
c1ccc2c3c([nH]c2c1)CNCC3 [Noreleagnine],remaining activity at 1.25 µM,[1]; Well no.=3260,101%
same,remaining activity at 3.75 µM,[2]; Well no.=3260,101%
NC[C@H](O)c1ccc(O)c(O)c1 [Norepinephrine (bitartrate monohydrate)],remaining activity at 1.25 µM,[1]; Well no.=6517,101%
same,remaining activity at 3.75 µM,[2]; Well no.=6517,98.7%
NC[C@H](O)c1ccc(O)c(O)c1 [Norepinephrine],remaining activity at 1.25 µM,[1]; Well no.=7015,106%
same,remaining activity at 3.75 µM,[2]; Well no.=7015,103%
C#C[C@]1(OC(C)=O)CC[C@H]2[C@@H]3CCC4=CC(=O)CC[C@@H]4[C@H]3CC[C@@]21C [Norethindrone acetate],remaining activity at 1.25 µM,[1]; Well no.=5895,99.8%
same,remaining activity at 3.75 µM,[2]; Well no.=5895,101%
C#C[C@]1(O)CC[C@H]2[C@@H]3CCC4=CC(=O)CC[C@@H]4[C@H]3CC[C@@]21C [Norethindrone],remaining activity at 1.25 µM,[1]; Well no.=2013,96.6%
same,remaining activity at 3.75 µM,[2]; Well no.=2013,96.6%
CCn1cc(C(=O)O)c(=O)c2cc(F)c(N3CCNCC3)cc21 [Norfloxacin],remaining activity at 1.25 µM,[1]; Well no.=2043,109%
same,remaining activity at 3.75 µM,[2]; Well no.=2043,105%
C/C=C1/CN2CC[C@]34C(=C(C=O)[C@H]1C[C@H]23)Nc1ccccc14 [Norfluorocurarine],remaining activity at 1.25 µM,[1]; Well no.=3165,95.2%
same,remaining activity at 3.75 µM,[2]; Well no.=3165,97.4%
c1ccc2c(c1)[nH]c1cnccc12 [Norharmane],remaining activity at 1.25 µM,[1]; Well no.=3262,101%
same,remaining activity at 3.75 µM,[2]; Well no.=3262,98.5%
CNCCC=C1c2ccccc2CCc2ccccc21 [Nortriptyline hydrochloride],remaining activity at 1.25 µM,[1]; Well no.=1097,95.3%
same,remaining activity at 3.75 µM,[2]; Well no.=1097,96.6%
COc1ccc2c(c1OC)C(=O)O[C@@H]2[C@H]1c2c(cc3c(c2OC)OCO3)CCN1C [Noscapine hydrchloride],remaining activity at 1.25 µM,[1]; Well no.=957,93%
same,remaining activity at 3.75 µM,[2]; Well no.=957,95.4%
COc1ccc2c(c1OC)C(=O)O[C@@H]2[C@H]1c2c(cc3c(c2OC)OCO3)CCN1C [Noscapine],remaining activity at 1.25 µM,[1]; Well no.=6613,106%
same,remaining activity at 3.75 µM,[2]; Well no.=6613,106%
COc1cc2c3c(c1OC)-c1ccccc1C[C@H]3N(C)CC2 [Nuciferine],remaining activity at 1.25 µM,[1]; Well no.=8335,95.2%
same,remaining activity at 3.75 µM,[2]; Well no.=8335,89%
COc1ccc(C2=N[C@@H](c3ccc(Cl)cc3)[C@@H](c3ccc(Cl)cc3)N2C(=O)N2CCNC(=O)C2)c(OC(C)C)c1 [Nutlin (3)],remaining activity at 1.25 µM,[1]; Well no.=6356,98.9%
same,remaining activity at 1.25 µM,[1]; Well no.=7836,103%
same,remaining activity at 3.75 µM,[2]; Well no.=6356,101%
same,remaining activity at 3.75 µM,[2]; Well no.=7836,99.3%
COc1ccc(C2=N[C@@H](c3ccc(Cl)cc3)[C@@H](c3ccc(Cl)cc3)N2C(=O)N2CCNC(=O)C2)c(OC(C)C)c1 [Nutlin (3a)],remaining activity at 1.25 µM,[1]; Well no.=6440,92.9%
same,remaining activity at 1.25 µM,[1]; Well no.=7746,92%
same,remaining activity at 3.75 µM,[2]; Well no.=6440,93.4%
same,remaining activity at 3.75 µM,[2]; Well no.=7746,93.2%
COc1ccc(C2=N[C@H](c3ccc(Cl)cc3)[C@H](c3ccc(Cl)cc3)N2C(=O)N2CCNC(=O)C2)c(OC(C)C)c1 [Nutlin (3b)],remaining activity at 1.25 µM,[1]; Well no.=6742,100%
same,remaining activity at 1.25 µM,[1]; Well no.=8362,101%
same,remaining activity at 3.75 µM,[2]; Well no.=6742,100%
COc1ccc(C2=N[C@@H](c3ccc(Cl)cc3)[C@@H](c3ccc(Cl)cc3)N2C(=O)N2CCNC(=O)C2)c(OC(C)C)c1 [Nutlin-3],remaining activity at 1.25 µM,[1]; Well no.=4621,104%
same,remaining activity at 3.75 µM,[2]; Well no.=4621,108%
CC(CCc1ccccc1)NC(C)C(O)c1ccc(O)cc1 (stereo not drawn) [Nylidrin hydrochloride],remaining activity at 1.25 µM,[1]; Well no.=940,96%
same,remaining activity at 3.75 µM,[2]; Well no.=940,95.1%
C[C@@H]1[C@H](O)[C@@H](C)/C=C/C=C/CC/C=C/C=C/C=C/C=C/[C@H](O[C@@H]2O[C@H](C)[C@@H](O)[C@H](N)[C@@H]2O)C[C@@H]2O[C@](O)(C[C@@H](O)[C@H](O)CC[C@@H](O)C[C@@H](O)C[C@@H](O)CC(=O)O[C@H]1C)C[C@H](O)[C@H]2C(=O)O [Nystatin],remaining activity at 1.25 µM,[1]; Well no.=2045,97.9%
same,remaining activity at 3.75 µM,[2]; Well no.=2045,100%
"O=C(NCCO)c1cc(C(=O)NCCO)cc(C(=O)NCCO)c1 [N~1~,N~3~,N~5~-tris(2-hydroxyethyl)-1,3,5-benzenetricarboxamide]",remaining activity at 1.25 µM,[1]; Well no.=6029,96.8%
same,remaining activity at 3.75 µM,[2]; Well no.=6029,99.9%
